One series has as its target T1, dog GIPR (Canis lupus familiaris, UniProt A0A8I3MPG1).
T1 construct: expressed in transfected cells; host or cells: CHO-K1 (transient)
T1 sequence (A0A8I3MPG1 24-449): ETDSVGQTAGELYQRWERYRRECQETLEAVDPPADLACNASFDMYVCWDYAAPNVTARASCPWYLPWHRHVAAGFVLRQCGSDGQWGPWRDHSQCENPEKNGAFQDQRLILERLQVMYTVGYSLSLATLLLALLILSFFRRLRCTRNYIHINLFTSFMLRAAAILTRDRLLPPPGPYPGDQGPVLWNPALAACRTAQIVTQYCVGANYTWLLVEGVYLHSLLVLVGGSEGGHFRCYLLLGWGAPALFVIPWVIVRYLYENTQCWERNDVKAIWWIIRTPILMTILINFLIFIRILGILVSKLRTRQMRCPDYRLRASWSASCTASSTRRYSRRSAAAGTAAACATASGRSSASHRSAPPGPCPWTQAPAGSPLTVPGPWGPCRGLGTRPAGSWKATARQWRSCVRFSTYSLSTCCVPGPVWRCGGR
Nature of the series: Agonistic activity on GIPR of different species (LANCE Ultra cAMP assay): dog. The series is classed as cell-based. The note with it: ratio of EC50 value of other species to human EC50 value. Here is the method:
CHO-K1 cells were seeded in a 6-well plate at 0.6×10^6 cells/well and incubated overnight in an incubator at a temperature of 37 °C and a carbon dioxide concentration of 5%. The next day, CHO-K1 cell media were replaced. Then two tubes A and B were prepared for each plasmid. 100 µL Opti-MEM was added to tube A, then 4 µL Lipofectamine™ 3000 was added and mixed uniformly. 100 µL Opti-MEM was firstly added to tube B, then 2 µg of one of the plasmids (human GIPR-pcDNA5 (+) plasmid, dog GIPR-pcDNA5 (+) plasmid, mouse GIPR-pcDNA5 (+) plasmid, rat GIPR-pcDNA5 (+) plasmid, rabbit GIPR-pcDNA5 (+) plasmid, monkey GIPR-pcDNA5 (+) plasmid) was added and mixed uniformly, and 4 µL P3000™ was added to tube B and mixed uniformly (the ratio of plasmid to transfection reagent was 1 µg: 2 µL). […]
18-20 hours after transfection, human GIPR-CHO, dog GIPR-CHO, mouse GIPR-CHO, rat GIPR-CHO, rabbit GIPR-CHO, and monkey GIPR-CHO cells were resuspended in 1×Casein Stimulation Buffer (HBSS, 5 mM HEPES, 0.5 mM IBMX, 0.1% casein, pH7.4), and seeded into a 384-well cell culture plate at 9 µL/well (cell numbers being 1000, 2000, 2000, 2000, 2000, 2000 cells/well, respectively). […] The readings at 665 nm and 620 nm were determined with a 330 nm excitation light on a microplate reader. The 665 nm/620 nm reading ratio was calculated. […]
For orientation: Time-resolved FRET reads energy transfer from a long-lived donor to a nearby acceptor.

The next series in a line: in vivo. As to conditions: sc, 0.025 mg/kg. Details: species or system cats. Here is the method: After subcutaneous administration to cats, plasma was collected and the drug concentration in plasma was determined to illustrate the in vivo pharmacokinetic properties of the compound according to the present invention. […] The blood samples were stored on wet ice and centrifuged (1500-1600 g, 2-8°C, for 10 minutes) within 0.5 hours to obtain plasma, with at least 100 µL of plasma required for each sample. The plasma was then frozen and stored at -90°C to -60°C for subsequent analysis and detection. 30.0 µL of thawed plasma sample were taken, and 300 µL of acetonitrile solution containing an internal standard was added to precipitate the proteins. The mixture was vortexed for 1 minute and then centrifuged at 13,000 rpm for 5 minutes. 165 µL of the supernatant were transferred to a 96-well plate for LC-MS/MS analysis to determine the drug concentration in the plasma. Based on the drug concentration in plasma of the compound in the cats, the pharmacokinetic parameters were calculated by applying the software Winnolin 8.3 in a non-compartmental model. Table 12 Average pharmacokinetic parameters after single subcutaneous administration in cats

Data on one molecule can be found in EP4813403A1, “USE OF GLP-1R/GIPR DOUBLE-TARGET AGONIST IN PREPARING ANIMAL DRUG” (Hangzhou Zhongmeihuadong Pharmaceutical Co., Ltd., priority 2023, dated 2025).

Turning to `CC[C@H](C)[C@H](NC(=O)C(C)(C)NC(=O)[C@H](Cc1ccc(O)cc1)NC(=O)[C@H](CC(=O)O)NC(=O)[C@H](CO)NC(=O)[C@@H](NC(=O)C(C)(Cc1ccccc1)NC(=O)[C@@H](NC(=O)CNC(=O)[C@H](CCC(=O)O)NC(=O)C(C)(C)NC(=O)[C@@H](N)Cc1ccc(O)cc1)[C@@H](C)O)[C@@H](C)O)C(=O)NC(C)(C)C(=O)N[C@@H](CC(C)C)C(=O)N[C@@H](CC(=O)O)C(=O)N[C@@H](CCCCN)C(=O)N[C@@H](CCC(N)=O)C(=O)N[C@@H](C)C(=O)N[C@@H](CCC(N)=O)C(=O)N[C@@H](C)C(=O)N[C@@H](CCC(=O)O)C(=O)N[C@@H](Cc1ccccc1)C(=O)N[C@H](C(=O)N[C@@H](CCCCNC(=O)COCCOCCNC(=O)COCCOCCNC(=O)COCCOCCNC(=O)CC[C@H](NC(=O)CCCCCCCCCCCCCCCCCCCCC(=O)O)C(=O)O)C(=O)N[C@@H](Cc1c[nH]c2ccccc12)C(=O)N[C@@H](CC(C)C)C(=O)N[C@@H](CC(C)C)C(=O)N[C@@H](CCCCN)C(=O)NCC(=O)NCC(=O)N1CCC[C@H]1C(=O)N[C@@H](CO)C(=O)N[C@@H](CO)C(=O)NCC(=O)N[C@@H](C)C(=O)N1CCC[C@H]1C(=O)N1CCC[C@H]1C(=O)N1CCC[C@H]1C(=O)N[C@@H](CO)C(=O)N[C@@H](CCCCN)C(N)=O)C(C)C` (stereo partly shown) [Compound P016], the “GIPR EC50 ratio” value on dog GIPR was determined as 2.88. For the same molecule, in the series “in vivo” (both sexes, cat), the total exposure AUC(0-inf) (usually total exposure, with the tail of the curve extrapolated) was determined as 11200 ng·h/mL; the AUC(0-t) (in general, the area under the concentration-time curve up to a stated or last time point) came out at 9260 ng·h/mL; the highest level (Cmax) was 123 ng/mL; the Tmax (as a rule, the time from dosing to the highest level) came out at 24 h. Moreover, the half-life (as a rule, the time needed for the level to fall by half in the phase considered) in “in vivo” (both sexes, cat) is 37.4 h. The MRT (commonly a mean duration of stay, worked out from the concentration-time curve) in the series “in vivo” (both sexes, cat, MRT0-t) came out at 54.4 h. The molecule further came in with a mean residence time (MRT) in the series “in vivo” (both sexes, cat, MRT0-∞) of 61.6 h. In the series “in vivo”, the AUC(0-t) amounted to 9260 ng·h/mL and the T1/2 is 37.4 h.
